“Also recorded” adds a separate entry of the source.
Experiments:
M. gallisepticum [1] = test: in vitro activity; assay type: cell-based
Proteus vulgaris 838 = test: Antibiotic Spectrum Profile, agar diffusion test; assay type: cell-based; conditions: 1 mg./ml., read-out: Diameters of Inhibition Zones
[2] = tested on: Pseudomonas stutzeri (MB 2765); test: in vitro activity; assay type: cell-based
E. acervulina = test: in vitro activity; assay type: cell-based
Streptococcus pyogenes = test: in vitro activity; assay type: cell-based
[3] = tested on: Pseudomonas stutzeri (MB 1231); test: in vitro activity; assay type: cell-based
S. aureus 2756 = test: Antibiotic Spectrum Profile, agar diffusion test; assay type: cell-based; conditions: Staphylococcus aureus, 1 mg./ml., read-out: Diameters of Inhibition Zones
[4] = tested on: Salmonealla gallinarum (MB 1287); test: in vitro activity; assay type: cell-based
coccidia [5] = test: chicken coccidiosis; assay type: in vivo; conditions: most prevalent types
Erwinia auroseptica 1159 = test: Antibiotic Spectrum Profile, agar diffusion test; assay type: cell-based; conditions: 1 mg./ml., read-out: Diameters of Inhibition Zones
PPLO = PPLO in cattle; assay type: in vivo
Strep. faecium 2820 = test: Antibiotic Spectrum Profile, agar diffusion test; assay type: cell-based; conditions: Enterococcus faecium, 1 mg./ml., read-out: Diameters of Inhibition Zones
[6] = tested on: Pseudomonas aeruginosa (MB 3210); test: in vitro activity; assay type: cell-based
Streptococcus faecum = test: in vitro activity; assay type: cell-based
Bacillus subtilis 964 = test: Antibiotic Spectrum Profile, agar diffusion test; assay type: cell-based; conditions: 1 mg./ml., read-out: Diameters of Inhibition Zones
[7] = tested on: Staphylococcus aureus 108; test: Antibiotic Spectrum Profile, agar diffusion test; assay type: cell-based; conditions: 1 mg./ml., read-out: Diameters of Inhibition Zones
Proteus vulgaris [8] = test: in vivo test in mice, Proteus vulgaris infection; conditions: infection IP, therapy IP, at time of infection and 6 hours later
Method: *Values in the table are expressed in mg./mouse. Both infections and
therapeutic doses of FR-02A were administered intraperitoneally. FR-02A
was administered at time of infection and again 6 hours later.

coccidia [9] = test: mouse coccidiosis; conditions: in vivo
species of Mycoplasma = test: activity against Mycoplasma; assay type: cell-based
Vibrio percolans 1272 = test: Antibiotic Spectrum Profile, agar diffusion test; assay type: cell-based; conditions: Comamonas terrigena, 1 mg./ml., read-out: Diameters of Inhibition Zones
E. coli 60 = test: Antibiotic Spectrum Profile, agar diffusion test; assay type: cell-based; conditions: Escherichia coli, 1 mg./ml., read-out: Diameters of Inhibition Zones
[10] = tested on: S. aureus (res. Erythromycin) 1909; test: Antibiotic Spectrum Profile, agar diffusion test; assay type: cell-based; conditions: Staphylococcus aureus, 1 mg./ml., read-out: Diameters of Inhibition Zones
[11] = tested on: Staphylococcus aureus (MB 108); test: in vitro activity; assay type: cell-based
M. gallisepticum [12] = test: M. gallisepticum air sacculitis in broilers; assay type: in vivo
Proteus vulgaris 1012 = test: Antibiotic Spectrum Profile, agar diffusion test; assay type: cell-based; conditions: 1 mg./ml., read-out: Diameters of Inhibition Zones
Escherichia coli 1418 = test: Antibiotic Spectrum Profile, agar diffusion test; assay type: cell-based; conditions: 1 mg./ml., read-out: Diameters of Inhibition Zones
Vibrio percolans = test: agar-diffusion bioassay using Vibrio percolans; assay type: cell-based; conditions: Comamonas terrigena; concentration of 200 μ/ml.; LH-20 product
Method: A 0.5 ml. solution of methanol containing 106 mg. of FR-02A obtained from Example 1 above is charged to a 75 ml. bed (1.25 cm. dia. × 56 cm. ht.) of Sephadex LH-20 gel in methanol (Pharmacia Fine Chemicals, Inc., Piscataway, N.J.). The column is developed with methanol. […] Fractions are bioassayed at a 1-10 dilution with 1/2 dia. paper discs on agar-diffusion assay plates seeded with Vibrio percolans. Zones of inhibition are obtained corresponding to the third mass peak (KD = 0.3) detected. The fractions corresponding to the third mass peak are combined and evaporated to yield 43 mg. of FR-02A.
The product when assayed in the above agar-diffusion bioassay using Vibrio percolans gives a 16 mm. zone of inhibition at a concentration of 200 μ/ml. The U.V. absorption in pH 7.0 phosphate buffer was: […]

[13] = tested on: Vibrio percolans American Type Culture Collection (ATCC 8461); test: disc-plate assay, zone of inhibition; assay type: cell-based
Method: Assays were run by the disc-plate procedure using 3/8 inch filter paper discs. The assay plates were prepared using Difco nutrient agar plus 2.0 g./l. Difco yeast extract at 10 ml. per plate. An overnight growth of the assay organism, Vibrio percolans American Type Culture Collection (ATCC 8461) in nutrient broth plus 0.2% yeast extract was diluted in sterile saline solution to a suspension having 40% transmittance at a wave length of 660 mμ. This suspension was added at 20 ml./liter of medium prior to pouring the plates.
The assay plates were held at 4° C. until used (5 day maximum). Following the application of the antibiotic-saturated assay discs the plates were incubated at 28° C. for a period of from 16 to 24 hours. Zones of inhibition were read as mm. diameter. They were used to determine relative potencies or, when compared with a purified reference standard, the potency in μg./ml. Assays of FR-02A in fermentation broths, mycelia and suspended nutrient matter separated from fermentation broths and in broths free of solids were performed after extracting the FR-02A into a suitable solvent. […] When such an assay is performed in a quantitative fashion, from 50 to 100 μg./ml. of antibiotic can be detected.

[14] = tested on: Bacillus subtilis (MB 797); test: in vitro activity; assay type: cell-based
[15] = tested on: Klebsiella pneumoniae (MB 1264); test: in vitro activity; assay type: cell-based
Proteus vulgaris [16] = test: in vitro activity; assay type: cell-based
Streptococcus faecalis = test: in vitro activity; assay type: cell-based
S. aureus 3032 = test: Antibiotic Spectrum Profile, agar diffusion test; assay type: cell-based; conditions: Staphylococcus aureus, 1 mg./ml., read-out: Diameters of Inhibition Zones
gram-negative bacteria = test: antibacterial activity; assay type: cell-based

## CC=CC=CC1OC(O)(C(CC)C(=O)NCC=CC=C(C)C(OC)C(C)C2OC(C=CC=CC=C(C)C(=O)c3c(O)ccn(C)c3=O)C(O)C2O)C(O)C(OC2OC(C)C(OC3OC(C)C(OC)C(O)C3OC)C(OC)C2O)C1(C)C (stereo not drawn) [FR-02A, efrotomycin]
M. gallisepticum [1]
  in vitro activity: effective
Proteus vulgaris 838
  zone of inhibition at 1000 µg/mL: 18 mm
[2]
  activity: Activity was also found
E. acervulina
  in vitro activity: effective
Streptococcus pyogenes
  in vitro activity: effective
[3]
  activity: Activity was also found
S. aureus 2756
  zone of inhibition at 1000 µg/mL: 23 mm
[4]
  activity: Activity was also found
Coccidia [5]
  efficacy against chicken coccidiosis: effective
Erwinia auroseptica 1159
  zone of inhibition at 1000 µg/mL: 12 mm
PPLO
  efficacy against PPLO: effective
Strep. faecium 2820
  zone of inhibition at 1000 µg/mL: 20 mm
[6]
  activity: Activity was also found
Streptococcus faecum
  in vitro activity: effective
Bacillus subtilis 964
  zone of inhibition at 1000 µg/mL: 19 mm
[7]
  zone of inhibition at 1000 µg/mL: 11 mm
Proteus vulgaris [8]
  ED50: 1.73 mg./mouse
Coccidia [9]
  efficacy against mouse coccidiosis: effective
Species of Mycoplasma
  activity against species of Mycoplasma: shows activity
Vibrio percolans 1272
  zone of inhibition at 1000 µg/mL: 21 mm
E. coli 60
  zone of inhibition at 1000 µg/mL: 10 mm
[10]
  zone of inhibition at 1000 µg/mL: 16 mm
[11]
  activity: Activity was also found
M. gallisepticum [12]; Mycoplasmoides gallisepticum, air sacculitis in broilers
  ED50: 40 to 100 mg/kg
M. gallisepticum [12]; subcutaneously, broilers
  efficacy against M. gallisepticum air sacculitis: efficacious
Proteus vulgaris 1012
  zone of inhibition at 1000 µg/mL: 10 mm
Escherichia coli 1418
  zone of inhibition at 1000 µg/mL: 15 mm
Vibrio percolans
  zone of inhibition at 200 µg/mL: 16 mm
[13]; Comamonas terrigena, ATCC8461, 200 μg./ml., 3/8 inch discs, read-out: zones of inhibition
  zone of inhibition at 200 µg/mL: 16 mm
[13]; Vibrio percolans (ATCC 8461)
  activity: Activity was also found
[14]
  activity: Activity was also found
[15]
  activity: Activity was also found
Proteus vulgaris [16]
  in vitro activity: effective
Streptococcus faecalis
  in vitro activity: effective
S. aureus 3032
  zone of inhibition at 1000 µg/mL: 12 mm
gram-negative bacteria
  activity against gram-negative bacteria: shows activity; also recorded: effective
